Legend:
[1] = test system: IL-13 induced STAT6 phosphorylation in BEAS-2B human lung epithelial cells; assay: Cellular JAKI potency assay (BEAS-2B); format: cell-based; conditions: Homo sapiens, BEAS-2B, BEAS-2B cells, read-out: BEAS2B pIC50 (converted)
Summary of the method: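 BEAS-2B cells were preincubated with compound (0.1% DMSO) in HBSS/HEPES/BSA for 1 h at 37 °C, then stimulated with IL-13 (80 ng/mL before addition) for 30 min. After lysis, pSTAT6 (Tyr641) was quantified by AlphaLISA SureFire; IC50 from a 4-parameter fit of percent inhibition, reported as pIC50.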

[2] = molecular target: JAK1 (Homo sapiens (Human), UniProt P23458); assay: Biochemical JAK kinase assay (LanthaScreen), JAK1; conditions: for Ki: read-out: JAK1 pKi (converted)
Summary of the method: (§1)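 LanthaScreen format: phospho-STAT1 (pTyr701) detected with 2 nM Tb antibody after 10 mM EDTA quench. Kinase step used Km-level ATP and 200 nM STAT1 peptide, 1 h at ambient after 1 h pre-incubation. Inhibition fitted to IC50, reported as pKi.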

[3] = molecular target: JAK2 (Homo sapiens (Human), UniProt O60674); assay: Biochemical JAK kinase assay (LanthaScreen), JAK2; conditions: for Ki: read-out: JAK2 pKi (converted)
Summary of the method: as §1

[4] = molecular target: JAK3 (Homo sapiens (Human), UniProt P52333); assay: Biochemical JAK kinase assay (LanthaScreen), JAK3; conditions: read-out: JAK3 pKi (converted)
Description: (§2) A panel of four LanthaScreen JAK biochemical assays (JAK1, 2, 3 and Tyk2) were carried in a common kinase reaction buffer (50 mM HEPES, pH 7.5, 0.01% Brij-35, 10 mM MgCl2, and 1 mM EGTA). Recombinant GST-tagged JAK enzymes and a GFP-tagged STAT1 peptide substrate were obtained from Life Technologies.
(§3) Serially diluted compounds were pre-incubated with each of the four JAK enzymes and the substrate in white 384-well microplates (Corning) at ambient temperature for 1 h. ATP was subsequently added to initiate the kinase reactions in 10 μL total volume, with 1% DMSO. The final enzyme concentrations for JAK1, 2, 3 and Tyk2 are 4.2 nM, 0.1 nM, 1 nM, and 0.25 nM respectively; the corresponding Km ATP concentrations used are 25 μM, 3 μM, 1.6 μM, and 10 μM; while the substrate concentration is 200 nM for all four assays. Kinase reactions were allowed to proceed for 1 hour at ambient temperature before a 10 μL preparation of EDTA (10 mM final concentration) and Tb-anti-pSTAT1 (pTyr701) antibody (Life Technologies, 2 nM final concentration) in TR-FRET dilution buffer (Life Technologies) was added. The plates were allowed to incubate at ambient temperature for 1 h before being read on the EnVision reader (Perkin Elmer). Emission ratio signals (520 nm/495 nm) were recorded and utilized to calculate the percent inhibition values based on DMSO and background controls.
(§4) For dose-response analysis, percent inhibition data were plotted vs. compound concentrations, and IC50 values were determined from a 4-parameter robust fit model with the Prism software (GraphPad Software). Results were expressed as pIC50 (negative logarithm of IC50) and subsequently converted to pKi (negative logarithm of dissociation constant, Ki) using the Cheng-Prusoff equation.
(§5) Test compounds having a lower Ki value or higher pKi value in the four JAK assays show greater inhibition of JAK activity.

[5] = molecular target: TYK2 (Homo sapiens (Human), UniProt P29597); assay: Biochemical JAK kinase assay (LanthaScreen), Tyk2; conditions: read-out: Tyk2 pKi (converted)
Description: as §2, §3, §4, §5

Chain of TYK2 (P29597 whole entry): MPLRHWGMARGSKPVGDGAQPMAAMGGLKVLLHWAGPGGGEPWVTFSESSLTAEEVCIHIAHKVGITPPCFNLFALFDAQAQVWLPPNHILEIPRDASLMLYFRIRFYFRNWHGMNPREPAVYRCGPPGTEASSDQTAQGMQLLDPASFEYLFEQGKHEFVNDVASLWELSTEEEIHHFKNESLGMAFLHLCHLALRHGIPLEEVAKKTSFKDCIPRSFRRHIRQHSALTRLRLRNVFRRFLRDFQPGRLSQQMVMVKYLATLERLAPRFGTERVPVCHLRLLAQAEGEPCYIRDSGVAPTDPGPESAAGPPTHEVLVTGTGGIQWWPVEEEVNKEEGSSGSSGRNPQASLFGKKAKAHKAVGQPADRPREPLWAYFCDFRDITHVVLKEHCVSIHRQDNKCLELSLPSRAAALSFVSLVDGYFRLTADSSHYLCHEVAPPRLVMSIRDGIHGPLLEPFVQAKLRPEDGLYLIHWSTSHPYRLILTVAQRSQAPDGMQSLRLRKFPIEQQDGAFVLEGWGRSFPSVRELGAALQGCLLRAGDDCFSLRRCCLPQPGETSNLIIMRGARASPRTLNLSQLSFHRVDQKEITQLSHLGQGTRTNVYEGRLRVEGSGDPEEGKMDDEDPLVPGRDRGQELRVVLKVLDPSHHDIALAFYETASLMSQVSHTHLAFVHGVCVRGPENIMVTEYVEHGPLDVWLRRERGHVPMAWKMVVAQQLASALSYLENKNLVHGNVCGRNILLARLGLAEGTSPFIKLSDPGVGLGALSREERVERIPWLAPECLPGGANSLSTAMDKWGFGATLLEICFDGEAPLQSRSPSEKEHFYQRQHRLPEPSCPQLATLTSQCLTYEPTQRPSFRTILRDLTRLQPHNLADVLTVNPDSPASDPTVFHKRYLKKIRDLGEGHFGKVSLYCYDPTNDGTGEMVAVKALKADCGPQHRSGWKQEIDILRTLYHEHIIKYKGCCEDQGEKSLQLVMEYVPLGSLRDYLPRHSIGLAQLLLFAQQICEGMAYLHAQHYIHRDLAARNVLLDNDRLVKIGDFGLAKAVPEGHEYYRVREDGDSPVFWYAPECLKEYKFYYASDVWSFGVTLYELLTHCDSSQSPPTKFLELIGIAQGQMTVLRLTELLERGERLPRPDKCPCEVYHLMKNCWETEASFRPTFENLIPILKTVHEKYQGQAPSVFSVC
Chain of JAK3 (P52333 whole entry): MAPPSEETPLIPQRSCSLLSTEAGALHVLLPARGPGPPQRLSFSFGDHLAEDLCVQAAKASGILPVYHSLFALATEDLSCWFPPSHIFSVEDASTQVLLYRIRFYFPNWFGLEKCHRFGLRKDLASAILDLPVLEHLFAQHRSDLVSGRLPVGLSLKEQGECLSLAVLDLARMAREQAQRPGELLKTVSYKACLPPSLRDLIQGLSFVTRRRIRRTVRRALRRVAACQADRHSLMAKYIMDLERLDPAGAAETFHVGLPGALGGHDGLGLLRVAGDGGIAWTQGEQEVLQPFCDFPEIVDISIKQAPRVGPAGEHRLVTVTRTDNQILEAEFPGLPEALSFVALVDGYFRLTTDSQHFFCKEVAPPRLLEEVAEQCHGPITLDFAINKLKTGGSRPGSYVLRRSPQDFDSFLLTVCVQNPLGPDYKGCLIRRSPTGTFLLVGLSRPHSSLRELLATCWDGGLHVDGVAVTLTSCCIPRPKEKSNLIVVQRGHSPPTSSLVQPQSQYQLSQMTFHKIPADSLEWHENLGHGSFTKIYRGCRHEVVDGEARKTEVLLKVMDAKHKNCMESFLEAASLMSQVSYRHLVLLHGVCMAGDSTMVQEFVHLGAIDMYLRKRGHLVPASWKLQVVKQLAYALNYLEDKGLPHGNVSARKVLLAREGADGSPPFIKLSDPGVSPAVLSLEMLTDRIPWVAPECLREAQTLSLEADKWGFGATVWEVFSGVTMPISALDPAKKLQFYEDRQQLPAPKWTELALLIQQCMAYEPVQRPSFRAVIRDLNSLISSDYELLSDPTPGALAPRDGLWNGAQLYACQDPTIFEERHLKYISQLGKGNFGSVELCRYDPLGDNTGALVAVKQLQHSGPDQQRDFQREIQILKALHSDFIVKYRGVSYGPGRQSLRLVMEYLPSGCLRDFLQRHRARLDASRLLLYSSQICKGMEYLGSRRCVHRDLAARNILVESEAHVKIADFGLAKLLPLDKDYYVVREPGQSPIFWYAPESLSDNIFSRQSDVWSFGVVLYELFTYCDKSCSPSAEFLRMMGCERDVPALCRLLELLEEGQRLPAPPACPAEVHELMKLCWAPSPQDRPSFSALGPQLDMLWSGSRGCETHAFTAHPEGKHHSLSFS
Chain of JAK2 (O60674 whole entry): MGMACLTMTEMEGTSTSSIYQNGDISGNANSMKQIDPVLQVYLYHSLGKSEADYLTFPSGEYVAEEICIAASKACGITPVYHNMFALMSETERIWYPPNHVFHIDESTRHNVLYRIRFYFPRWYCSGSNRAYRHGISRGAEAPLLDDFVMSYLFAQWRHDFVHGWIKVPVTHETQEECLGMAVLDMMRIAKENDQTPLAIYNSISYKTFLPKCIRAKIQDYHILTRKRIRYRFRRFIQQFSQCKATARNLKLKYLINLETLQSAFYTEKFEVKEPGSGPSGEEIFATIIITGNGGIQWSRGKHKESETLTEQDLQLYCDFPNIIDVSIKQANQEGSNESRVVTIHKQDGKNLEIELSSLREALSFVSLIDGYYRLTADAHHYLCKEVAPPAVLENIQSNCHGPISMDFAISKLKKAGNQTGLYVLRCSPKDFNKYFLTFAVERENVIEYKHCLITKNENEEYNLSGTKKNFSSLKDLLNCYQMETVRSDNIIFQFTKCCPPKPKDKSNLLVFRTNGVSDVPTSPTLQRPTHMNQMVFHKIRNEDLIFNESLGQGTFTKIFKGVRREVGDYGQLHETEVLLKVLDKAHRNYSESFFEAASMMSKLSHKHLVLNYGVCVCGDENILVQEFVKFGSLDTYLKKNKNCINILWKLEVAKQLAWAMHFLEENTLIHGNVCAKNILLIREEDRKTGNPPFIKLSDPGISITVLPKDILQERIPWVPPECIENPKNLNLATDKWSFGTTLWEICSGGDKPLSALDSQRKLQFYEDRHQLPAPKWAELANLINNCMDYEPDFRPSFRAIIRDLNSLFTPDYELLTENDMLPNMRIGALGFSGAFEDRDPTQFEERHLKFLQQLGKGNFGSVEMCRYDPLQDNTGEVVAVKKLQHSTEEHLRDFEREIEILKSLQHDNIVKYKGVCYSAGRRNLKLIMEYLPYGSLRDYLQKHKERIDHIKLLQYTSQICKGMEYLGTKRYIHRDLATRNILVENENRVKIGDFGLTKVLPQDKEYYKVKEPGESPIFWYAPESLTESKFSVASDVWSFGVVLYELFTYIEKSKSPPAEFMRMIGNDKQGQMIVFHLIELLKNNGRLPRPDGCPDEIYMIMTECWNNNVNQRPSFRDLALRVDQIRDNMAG
Chain of JAK1 (P23458 whole entry): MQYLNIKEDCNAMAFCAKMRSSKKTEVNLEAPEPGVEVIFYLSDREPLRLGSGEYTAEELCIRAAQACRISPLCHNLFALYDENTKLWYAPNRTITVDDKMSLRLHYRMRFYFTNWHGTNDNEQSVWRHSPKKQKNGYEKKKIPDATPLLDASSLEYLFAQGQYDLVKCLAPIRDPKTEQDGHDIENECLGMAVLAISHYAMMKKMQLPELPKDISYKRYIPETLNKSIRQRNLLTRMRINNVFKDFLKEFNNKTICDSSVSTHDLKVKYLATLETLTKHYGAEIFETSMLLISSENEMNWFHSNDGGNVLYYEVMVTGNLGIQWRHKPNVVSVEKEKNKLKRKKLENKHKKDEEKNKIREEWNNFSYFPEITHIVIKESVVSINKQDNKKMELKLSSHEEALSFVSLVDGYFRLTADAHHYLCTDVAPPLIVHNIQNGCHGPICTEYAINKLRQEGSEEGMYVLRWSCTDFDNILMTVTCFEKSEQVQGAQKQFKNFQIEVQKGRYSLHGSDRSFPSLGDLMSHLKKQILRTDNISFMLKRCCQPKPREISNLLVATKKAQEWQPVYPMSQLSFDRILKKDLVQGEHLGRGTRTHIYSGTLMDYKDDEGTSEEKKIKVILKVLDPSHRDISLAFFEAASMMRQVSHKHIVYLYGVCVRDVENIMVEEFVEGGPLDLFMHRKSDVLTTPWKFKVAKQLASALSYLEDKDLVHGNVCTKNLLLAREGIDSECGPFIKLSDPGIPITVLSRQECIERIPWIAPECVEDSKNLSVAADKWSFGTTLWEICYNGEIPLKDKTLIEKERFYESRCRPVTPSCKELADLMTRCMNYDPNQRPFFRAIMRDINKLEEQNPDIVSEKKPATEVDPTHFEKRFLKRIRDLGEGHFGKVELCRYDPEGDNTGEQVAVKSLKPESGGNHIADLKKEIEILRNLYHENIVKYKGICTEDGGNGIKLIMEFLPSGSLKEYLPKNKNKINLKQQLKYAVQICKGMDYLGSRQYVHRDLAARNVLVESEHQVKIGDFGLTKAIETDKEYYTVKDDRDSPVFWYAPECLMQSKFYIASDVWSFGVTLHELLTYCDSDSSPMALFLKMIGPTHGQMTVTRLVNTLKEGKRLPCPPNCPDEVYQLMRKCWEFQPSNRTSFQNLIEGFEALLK

Row | Structure (SMILES) | IC50 [1] [nM] | Ki [2] [nM] | Ki [3] [nM] | Ki [4] [nM] | Ki [5] [nM] | JAK1 pKi [2] | JAK2 pKi [3]
1 | CCc1cc(O)ccc1-c1ccc2c(-c3nc(C4=CCN(C)C4)c[nH]3)n[nH]c2c1F [Example 31] | 3.16 to 10 | 0.1 to 1 | 0.1 to 1 | 0.1 to 1 | 1 to 10 | – | –
2 | CCc1cc(O)ccc1-c1ccc2c(-c3nc(C4=CCN(CCO)CC4)c[nH]3)n[nH]c2c1 [Example 33] | 3.16 to 10 | – | – | 0.1 to 1 | 0.1 to 1 | A (A represents a pKi value ≥10 (Ki≤0.1 nM)) | A (A represents a pKi value ≥10 (Ki≤0.1 nM))
3 | CCc1cc(O)ccc1-c1ccc2c(-c3nc(C4=CCN(CCCO)CC4)c[nH]3)n[nH]c2c1 [Example 34] | 3.16 to 10 | – | – | 0.1 to 1 | 1 to 10 | A (A represents a pKi value ≥10 (Ki≤0.1 nM)) | A (A represents a pKi value ≥10 (Ki≤0.1 nM))
4 | CCc1cc(O)ccc1-c1ccc2c(-c3nc(C4=CCN(CCO)CC4)c[nH]3)n[nH]c2c1F [Example 36] | 3.16 to 10 | – | 0.1 to 1 | 0.1 to 1 | 1 to 10 | A (A represents a pKi value ≥10 (Ki≤0.1 nM)) | –
5 | CCc1cc(O)ccc1-c1ccc2c(-c3nc(C4=CCCN(CCCO)C4)c[nH]3)n[nH]c2c1 [Example 42] | 3.16 to 10 | – | – | 0.1 to 1 | 1 to 10 | A (A represents a pKi value ≥10 (Ki≤0.1 nM)) | A (A represents a pKi value ≥10 (Ki≤0.1 nM))
6 | CCc1cc(O)ccc1-c1ccc2c(-c3nc(C4=CCN(CCO)C4)c[nH]3)n[nH]c2c1 [Example 50] | 3.16 to 10 | – | – | 0.1 to 1 | 0.1 to 1 | A (A represents a pKi value ≥10 (Ki≤0.1 nM)) | A (A represents a pKi value ≥10 (Ki≤0.1 nM))
7 | CCc1cc(O)ccc1-c1ccc2c(-c3nc(C4=CCN(CCO)C4)c[nH]3)n[nH]c2c1F [Example 53] | 3.16 to 10 | – | – | 0.1 to 1 | 1 to 10 | A (A represents a pKi value ≥10 (Ki≤0.1 nM)) | A (A represents a pKi value ≥10 (Ki≤0.1 nM))
8 | CCc1cc(O)ccc1-c1ccc2c(-c3nc(C4=CCN(CCCO)C4)c[nH]3)n[nH]c2c1F [Example 54] | 3.16 to 10 | – | – | 0.1 to 1 | 1 to 10 | A (A represents a pKi value ≥10 (Ki≤0.1 nM)) | A (A represents a pKi value ≥10 (Ki≤0.1 nM))
9 | CCc1cc(O)ccc1-c1ccc2c(-c3nc(C4=CCN(C5COC5)CC4)c[nH]3)n[nH]c2c1 [Example 57] | 10 to 31.6 | 0.1 to 1 | 0.1 to 1 | 0.1 to 1 | 1 to 10 | – | –
10 | CCc1cc(O)ccc1-c1ccc2c(-c3nc(C4=CCN(C5COC5)CC4)c[nH]3)n[nH]c2c1F [Example 64] | 10 to 31.6 | 0.1 to 1 | 0.1 to 1 | 0.1 to 1 | 1 to 10 | – | –
11 | CCc1cc(O)ccc1-c1ccc2c(-c3nc(C4=CCCN(C5COC5)C4)c[nH]3)n[nH]c2c1F [Example 70] | 31.6 to 100 | 1 to 10 | 0.1 to 1 | 0.1 to 1 | 10 to 100 | – | –
12 | CCc1cc(O)ccc1-c1ccc2c(-c3nc(C4=CCN(C5COC5)C4)c[nH]3)n[nH]c2c1F [Example 75] | 10 to 31.6 | 0.1 to 1 | 0.1 to 1 | 0.1 to 1 | 1 to 10 | – | –
13 | CCc1cc(O)ccc1-c1ccc2c(-c3nc(C4=CCN(CCSC)CC4)c[nH]3)n[nH]c2c1F [Example 81] | 31.6 to 100 | 0.1 to 1 | – | 0.1 to 1 | 1 to 10 | – | A (A represents a pKi value ≥10 (Ki≤0.1 nM))
14 | CCc1cc(O)ccc1-c1ccc2c(-c3nc(C4=CCCN(CCSC)C4)c[nH]3)n[nH]c2c1F [Example 90] | 31.6 to 100 | 0.1 to 1 | 0.1 to 1 | 0.1 to 1 | 10 to 100 | – | –
15 | CCc1cc(O)ccc1-c1ccc2c(-c3nc(C4=CCN(C(=O)CN)CC4)c[nH]3)n[nH]c2c1 [Example 152] | 10 to 31.6 | 0.1 to 1 | – | 0.1 to 1 | 1 to 10 | – | A (A represents a pKi value ≥10 (Ki≤0.1 nM))
16 | CCc1cc(O)ccc1-c1ccc2c(-c3nc(C4=CCN(C(=O)[C@@H](N)C(C)(C)O)CC4)c[nH]3)n[nH]c2c1 [Example 153] | 31.6 to 100 | 0.1 to 1 | – | 0.1 to 1 | 1 to 10 | – | A (A represents a pKi value ≥10 (Ki≤0.1 nM))
17 | CCc1cc(O)ccc1-c1ccc2c(-c3nc(C4=CCN(C(=O)CN)CC4)c[nH]3)n[nH]c2c1F [Example 157] | 31.6 to 100 | 0.1 to 1 | – | 0.1 to 1 | 1 to 10 | – | A (A represents a pKi value ≥10 (Ki≤0.1 nM))
18 | CCc1cc(O)ccc1-c1ccc2c(-c3nc(C4=CCN(C(=O)[C@@H](N)C(C)(C)O)CC4)c[nH]3)n[nH]c2c1F [Example 158] | 31.6 to 100 | 1 to 10 | 0.1 to 1 | 0.1 to 1 | 10 to 100 | – | –
19 | CCc1cc(O)ccc1-c1ccc2c(-c3nc(C4=CCN(C(=O)CN)C4)c[nH]3)n[nH]c2c1F [Example 173] | 31.6 to 100 | 0.1 to 1 | – | 0.1 to 1 | 1 to 10 | – | A (A represents a pKi value ≥10 (Ki≤0.1 nM))
20 | CCc1cc(O)ccc1-c1ccc2c(-c3nc(C4=CCN(C(=O)[C@@H](N)C(C)(C)O)C4)c[nH]3)n[nH]c2c1F [Example 174] | 10 to 31.6 | 0.1 to 1 | 0.1 to 1 | 0.1 to 1 | 1 to 10 | – | –
21 | CCc1cc(O)ccc1-c1ccc2c(-c3nc(C4=CCN(S(=O)(=O)C5CNC5)CC4)c[nH]3)n[nH]c2c1 [Example 175] | 31.6 to 100 | 0.1 to 1 | 0.1 to 1 | 0.1 to 1 | 1 to 10 | – | –
22 | CCc1cc(O)ccc1-c1ccc2c(-c3nc(C4=CCN(S(=O)(=O)C5CNC5)CC4)c[nH]3)n[nH]c2c1F [Example 178] | 100 to 316 | 1 to 10 | 0.1 to 1 | 1 to 10 | 10 to 100 | – | –
23 | CCc1cc(O)ccc1-c1ccc2c(-c3nc(C4=CCN(CCN5CCOCC5)CC4)c[nH]3)n[nH]c2c1 [Example 184] | 3.16 to 10 | – | – | 0.1 to 1 | 1 to 10 | A (A represents a pKi value ≥10 (Ki≤0.1 nM)) | A (A represents a pKi value ≥10 (Ki≤0.1 nM))
24 | CCc1cc(O)ccc1-c1ccc2c(-c3nc(C4=CCN(C5CN(C)C5)CC4)c[nH]3)n[nH]c2c1F [Example 186] | 3.16 to 10 | 0.1 to 1 | 0.1 to 1 | 0.1 to 1 | 1 to 10 | – | –
25 | CCc1cc(O)ccc1-c1ccc2c(-c3nc(C4=CCN(C[C@@H]5COCCN5)CC4)c[nH]3)n[nH]c2c1F [Example 189] | 10 to 31.6 | 0.1 to 1 | 0.1 to 1 | 0.1 to 1 | 1 to 10 | – | –
26 | CCc1cc(O)ccc1-c1ccc2c(-c3nc(C4=CCN(CCN5CCOCC5)CC4)c[nH]3)n[nH]c2c1F [Example 191] | 10 to 31.6 | – | – | 0.1 to 1 | 1 to 10 | A (A represents a pKi value ≥10 (Ki≤0.1 nM)) | A (A represents a pKi value ≥10 (Ki≤0.1 nM))
27 | CCc1cc(O)ccc1-c1ccc2c(-c3nc(C4=CCCN(C5CCN(C)CC5)C4)c[nH]3)n[nH]c2c1F [Example 194] | 10 to 31.6 | 0.1 to 1 | 0.1 to 1 | 0.1 to 1 | 1 to 10 | – | –

Source: US20240092758A1, “IMIDAZOLO INDAZOLE COMPOUNDS AS JAK INHIBITORS” (Theravance Biopharma R&D IP, LLC, priority 2021, published 2024)
